For one assay, the target named is T1, AKT3 (Homo sapiens, UniProt Q9Y243).
T1 construct: purchased life technology
In words: AKT enzyme activity test (LANCE TR-FRET), AKT3. Type of assay: biochemical. The text has this:
(§1) AKT, also known as protein kinase B (PKB), is a serine/threonine specific protein kinase, mainly including AKT1, AKT2 and AKT3. The AKT signaling pathway plays an important role in various cellular processes such as glucose metabolism, apoptosis, cell proliferation transcription and cell migration. This study intends to analyze the inhibitory effect of the crystal form of the compound of formula (I) on the kinase activity of AKT family members.
(§2) In this experiment, the homogeneous time-resolved fluorescence […] energy transfer (LANCE TR-FRET®) method was used. The enzymes, biotinylated polypeptide substrates and the compound to be tested were mixed in the detection plate, and ATP was added to initiate the reaction and the mixture was incubated. After the reaction, EDTA was added to terminate the reaction, and Eu-labeled antibody was added at the same time to carry out the reaction and the reaction was detected. The detection plate was analyzed using Envision from PE Company, and the analysis mode was TR-FRET, the data were expressed by fluorescence signals at 665 nm and 615 nm, respectively.
(§3) Compound preparation: the test compound and the reference compound were diluted with 100% DMSO, the initial concentrations of the compounds were 10 μM, and the compounds were 3-fold gradient diluted into 10 concentrations. […]
A general note: In TR-FRET formats the signal depends on donor and acceptor labels being close together.

The target in another assay is T2, AKT2 (Homo sapiens, UniProt P31751).
T2 construct: purchased life technology
In words: AKT enzyme activity test (LANCE TR-FRET), AKT2. It counts as biochemical.
Text: as §1, §2, §3

Assay [1] concerns prostate cancer cell LNCaP overexpressing AKT. In words: Cytoactive test, cell proliferation (CellTiter-Glo). Type of assay: cell-based. The text has this:
This experiment intends to study the inhibitory effect of the compound of formula (I) on the prostate cancer cell LNCaP overexpressing AKT.
The content of ATP directly reflects the number and state of cells, and the number of living cells can be detected by quantitatively measuring ATP. The live cell detection kit contains luciferase and its substrate, with the participation of ATP, luciferase can catalyze the substrate and emit a stable optical signal, the amount of ATP in the cell can be determined by detecting the strength of the signal. Wherein the light signal is proportional to the amount of ATP in the cell, and ATP is positively correlated to the number of living cells, so that the proliferation of the cell can be detected. The detection plate was analyzed by using Envision from PE Company.
LNCaP cells were seeded in a 384-well plate, each well contained 1000 cells.
The cell plate was placed in a carbon dioxide incubator overnight.
The compound was 3-fold diluted with Bravo into 10 compound concentrations, and a double duplicate well experiment was set up.
The compound was transferred to the cell plate at an initial concentration of 10 μM. […]
Promega CellTiter-Glo reagent was added to the cell plate, and incubated at room temperature for 10 minutes to stabilize the luminescence signal, which was read by PerkinElmer Envision multi-label analyzer.
For orientation: Cellular ATP, detected with luciferase, serves as a proxy for viable cell number.

In the next assay the target is T3, AKT1 (Homo sapiens, UniProt P31749).
T3 construct: purchased life technology
In words: AKT enzyme activity test (LANCE TR-FRET), AKT1. It counts as biochemical.
Text: as §1, §2, §3

T2 sequence (P31751 whole entry): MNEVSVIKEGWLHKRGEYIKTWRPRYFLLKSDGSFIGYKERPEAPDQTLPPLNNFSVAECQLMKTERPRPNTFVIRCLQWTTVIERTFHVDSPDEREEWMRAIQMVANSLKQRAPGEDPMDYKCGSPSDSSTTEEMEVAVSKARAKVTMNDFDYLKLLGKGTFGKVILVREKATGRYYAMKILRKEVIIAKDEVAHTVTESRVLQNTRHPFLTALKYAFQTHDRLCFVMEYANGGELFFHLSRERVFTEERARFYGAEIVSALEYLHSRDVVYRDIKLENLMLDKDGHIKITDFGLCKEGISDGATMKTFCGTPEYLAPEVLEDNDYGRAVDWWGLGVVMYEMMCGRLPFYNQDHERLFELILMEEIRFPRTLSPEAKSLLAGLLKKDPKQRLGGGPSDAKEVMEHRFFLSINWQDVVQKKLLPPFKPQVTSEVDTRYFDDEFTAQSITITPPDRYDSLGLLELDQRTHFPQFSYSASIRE
T3 sequence (P31749 whole entry): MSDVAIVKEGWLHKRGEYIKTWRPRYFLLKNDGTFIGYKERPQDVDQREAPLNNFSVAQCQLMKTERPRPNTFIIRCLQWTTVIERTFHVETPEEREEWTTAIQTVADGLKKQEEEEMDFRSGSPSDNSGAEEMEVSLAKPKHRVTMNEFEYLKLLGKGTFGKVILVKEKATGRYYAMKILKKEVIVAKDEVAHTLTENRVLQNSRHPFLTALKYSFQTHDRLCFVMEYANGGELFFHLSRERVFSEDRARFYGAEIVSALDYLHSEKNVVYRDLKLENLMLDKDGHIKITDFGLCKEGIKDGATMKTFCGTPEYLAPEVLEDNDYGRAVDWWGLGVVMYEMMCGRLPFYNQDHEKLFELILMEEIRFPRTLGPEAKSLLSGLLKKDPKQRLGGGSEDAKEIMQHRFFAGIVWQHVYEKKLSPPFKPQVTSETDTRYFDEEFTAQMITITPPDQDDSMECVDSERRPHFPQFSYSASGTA
T1 sequence (Q9Y243 whole entry): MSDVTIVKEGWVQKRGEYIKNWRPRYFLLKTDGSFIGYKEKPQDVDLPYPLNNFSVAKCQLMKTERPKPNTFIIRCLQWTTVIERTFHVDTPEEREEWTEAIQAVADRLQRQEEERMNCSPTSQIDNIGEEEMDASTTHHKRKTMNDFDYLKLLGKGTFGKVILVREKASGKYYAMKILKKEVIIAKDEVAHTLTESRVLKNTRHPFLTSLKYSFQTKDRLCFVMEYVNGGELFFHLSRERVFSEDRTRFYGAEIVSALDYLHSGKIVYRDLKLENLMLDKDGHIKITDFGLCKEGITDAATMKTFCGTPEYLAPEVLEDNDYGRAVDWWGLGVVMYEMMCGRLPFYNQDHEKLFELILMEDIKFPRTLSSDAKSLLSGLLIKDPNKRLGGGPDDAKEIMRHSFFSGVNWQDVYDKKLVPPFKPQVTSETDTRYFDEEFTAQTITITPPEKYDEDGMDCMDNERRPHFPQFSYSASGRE

Take `Cc1cnn2c1-c1cc(C(=O)N[C@H](CN)Cc3cccc(F)c3)sc1CCC2.O=C(O)/C=C\C(=O)O`: on AKT3, the “inhibition effect against the activity of AKT3 kinase” value is “strong inhibition effect”. Also, the IC50 was 90.4 nM at AKT3 (Akt3 2 nM, ATP 160 μM, read-out: IC50 of inhibition on kinase activity, AKT3); 50.3 nM at AKT2 (Akt2 2 nM, ATP 360 μM, read-out: IC50 of inhibition on kinase activity, AKT2); 67 nM in assay [1] (Homo sapiens, 72 h, 3 days, read-out: IC50 of inhibition on cell proliferation); 1.3 nM at AKT1 (Akt1 1.25 nM, ATP 36 μM, read-out: IC50 of inhibition on kinase activity, AKT1). For the same compound, the “inhibition effect against the activity of AKT2 kinase” value against AKT2 is “strong inhibition effect”. Further, the “inhibitory effect on the growth of LNCaP cells” value in assay [1] is on record as “significant inhibitory effect”. Besides, the “inhibition effect against the activity of AKT1 kinase” value on AKT1 was “strong inhibition effect”.

(Values after US11261196B2, “Salt serving as AKT inhibitor and crystal thereof” (HARBIN ZHENBAO PHARMACEUTICAL CO., LTD., priority 2017, dated 2022).)
